From patent US7022855B2, “Halogen-substituted quinoline derivatives and ectoparasite control agent” (Meiji Seika Kaisha, Ltd., priority 2001, dated 2006)

Experiments:
Format in all cases: in vivo
[1] = tested on: Haemaphysalis longicornis; test: Tickcidal effect against Haemaphysalis longicornis (dry film on glass Schale); conditions: larva ticks, 24 hr, 25° C., relative humidity 100%; for Death rate, %: 10 ppm; for pest or weed control at 10 ppm: Haemaphysalis longicornis, read-out: Death rate, %
Experimental: A test compound solution (1.0 ml) prepared by dissolving a test compound in acetone and diluting the solution with acetone to 10 ppm was dropped on a glass Schale having a diameter of 9 cm. Acetone was evaporated at room temperature to form a dry film of the test compound at the bottom of the Schale. Larva ticks of Haemaphysalis longicornis (40 to 100 head) were released in the Petri dish, and the Schale was then lidded and was hermetically sealed by covering with a polyethylene sheet. Rearing was carried out at a temperature of 25° C. and a relative humidity of 100% under fully darkened conditions. The number of ticks, which have fallen on their side, was counted 24 hr after the initiation of rearing. The death rate (%) was determined from the number of dead ticks. The test was repeated twice.

Dermanyssus gallinae = test: Miticidal effect against Dermanyssus gallinae (treated Pasteur pipette, contact test); conditions: 50 ppm in acetone, sucking adult mites, 24 hr after treatment, 25° C.; for pest or weed control at 50 ppm: Dermanyssus gallinae, read-out: Death rate, %
Text: (§1) The tip of a Pasteur pipette was sealed with Parafilm, and a sample compound diluted with acetone to 50 ppm was poured into the pipette from its top. The Parafilm in the tip of the pipette was removed one min after the pouring to discharge the test solution, and the pipette was air dried. Thereafter, an absorbent cotton was inserted into the upper end of the pipette, and 10 sucking adult mites of Dermanyssus gallinae were released in the pipette. The tip of the pipette was sealed with Hematoseal, and the pipette was then placed in a desiccator containing a saturated ammonium sulfate solution in its bottom and was stored under fully darkened conditions at 25° C. The mites were observed under a stereomicroscope 24 hr after the treatment to judge whether the mites were dead or survived, followed by determination of the death rate of mites (%).

Ornithonyssus sylviarum = test: Miticidal effect against Ornithonyssus sylviarum (treated Pasteur pipette, contact test); conditions: 50 ppm in acetone, sucking adult mites, 24 hr after treatment, 25° C., read-out: Death rate, %
Text: as §1, with “Ornithonyssus sylviarum” for “Dermanyssus gallinae”, “rate” for “rate of mites”

Ctenocephalides felis = test: Insecticidal effect against Ctenocephalides felis (dry film in glass tube); conditions: non-sucking adult fleas, 24 hr, 25° C., relative humidity 90%
Experimental: Test compound solutions (0.5 ml) prepared by dissolving a test compound in acetone and diluting the solutions with acetone to designated concentrations were placed respectively in glass tubes (inner diameter 2.6 cm, height 12 cm), and acetone was evaporated at room temperature to form a dry film of the test compound at the bottom of each glass tube. Non-sucking adult fleas (10 heads) of Ctenocephalides felis were released in the glass tubes. The glass tubes were then lidded. Whether the fleas were dead or survived was judged 24 hr after the initiation of rearing. The death rate (%) was determined from the number of dead fleas. Rearing was carried out at a temperature of 25° C. and a relative humidity of 90% under fully darkened conditions. The test was repeated three times.

| Molecule | pest or weed control at 50 ppm (Ornithonyssus sylviarum) [%] | pest or weed control at 50 ppm (Dermanyssus gallinae) [%] | also measured |
| --- | --- | --- | --- |
| 2,3-dimethyl-4-propargloxycarbonyloxy-5,6-difluoroquinoline [Compound 50] | – | – | Death rate, % [1]: 100%; Death rate, % (Dermanyssus gallinae): 95% |
| CCc1nc2cc(F)c(F)cc2c(OC(=O)C2CC2)c1C [Compound 1, 2-ethyl-3-methyl-4-cyclopropanecarbonyloxy-6,7-difluoroquinoline] | 80 | – | Death rate, % (Ctenocephalides felis; 20 ppm): 100% |
| CCc1nc2ccc(F)c(F)c2c(OC(=O)C2CC2)c1C [Compound 2, 2-ethyl-3-methyl-4-cyclopropanecarbonyloxy-5,6-difluoroquinoline] | 100 | 100 | Death rate, % (Ctenocephalides felis; 4 ppm): 97%; Death rate, % (Ctenocephalides felis; 20 ppm): 100%; pest or weed control at 10 ppm [1]: 100% |
| CCc1nc2ccc(F)c(F)c2c(OC(C)=O)c1C [Compound 12, 2-ethyl-3-methyl-4-acetyloxy-5,6-difluoroquinoline] | 100 | 95 | – |
| CCCCOC(=O)Oc1c(C)c(CC)nc2ccc(F)c(F)c12 [Compound 13, 2-ethyl-3-methyl-4-butoxycarbonyloxy-5,6-difluoroquinoline] | – | 85 | – |
| CCc1nc2ccc(F)c(F)c2c(OC(=O)OC(C)C)c1C [Compound 14, 2-ethyl-3-methyl-4-isopropoxycarbonyloxy-5,6-difluoroquinoline] | 100 | – | – |
| Cc1nc2ccc(F)c(F)c2c(OC(=O)C2CC2)c1C [Compound 16, 2,3-dimethyl-4-cyclopropanecarbonyloxy-5,6-difluoroquinoline] | 80 | 100 | pest or weed control at 10 ppm [1]: 100% |
| CCc1nc2ccc(F)c(Cl)c2c(OC(C)=O)c1C [Compound 19, 2-ethyl-3-methyl-4-acetyloxy-5-chloro-6-fluoroquinoline] | 100 | – | Death rate, % (Ctenocephalides felis; 4 ppm): 100% |
| CCc1nc2ccc(F)c(Cl)c2c(OC(=O)C2CC2)c1C [Compound 21, 2-ethyl-3-methyl-4-cyclopropanecarbonyloxy-5-chloro-6-fluoroquinoline] | 100 | – | – |
| CCc1nc2ccc(F)c(F)c2c(OC(=O)OC)c1C [Compound 24, 2-ethyl-3-methyl-4-methoxycarbonyloxy-5,6-difluoroquinoline] | 100 | 100 | Death rate, % (Ctenocephalides felis; 4 ppm): 84%; Death rate, % (Ctenocephalides felis; 20 ppm): 100%; pest or weed control at 10 ppm [1]: 100% |
| COC(=O)Oc1c(C)c(C)nc2ccc(F)c(F)c12 [Compound 25, 2,3-dimethyl-4-methoxycarbonyl-oxy-5,6-difluoroquinoline] | 100 | 100 | pest or weed control at 10 ppm [1]: 100% |
| CCC(=O)Oc1c(C)c(CC)nc2ccc(F)c(F)c12 [Compound 30, 2-ethyl-3-methyl-4-propionyloxy-5,6-difluoroqinoline] | – | – | Death rate, % [1]: 100%; Death rate, % (Dermanyssus gallinae): 100% |
| CCOC(=O)Oc1c(C)c(CC)nc2ccc(F)c(F)c12 [Compound 33, 2-ethyl-3-methyl-4-ethoxycarbonyl-oxy-5,6-difluoroquinoline] | – | 100 | – |
| CCc1nc2ccc(F)c(F)c2c(OC(=O)SC)c1C [Compound 39, 2-ethyl-3-methyl-4-methanethiolcarbonyloxy-5,6-difluoroquinoline] | – | – | Death rate, % (Ctenocephalides felis; 4 ppm): 80%; Death rate, % [1]: 100%; Death rate, % (Dermanyssus gallinae): 100% |
| C#CCOC(=O)Oc1c(C)c(CC)nc2ccc(F)c(F)c12 [Compound 41, 2-ethyl-3-methyl-4-propargyloxycarbonyloxy-5,6-difluoroquinoline] | – | 100 | pest or weed control at 10 ppm [1]: 100% |
| CC(=O)Oc1c(C)c(C)nc2ccc(F)c(F)c12 [Compound 44, 2,3-dimethyl-4-acetoxy-5,6-difluoro-quinoline] | – | 100 | pest or weed control at 10 ppm [1]: 100% |
| CCOC(=O)Oc1c(C)c(C)nc2ccc(F)c(F)c12 [Compound 45, 2,3-dimethyl-4-ethyloxycarbonyloxy-5,6-difluoroquinoline] | – | 100 | – |
| CSC(=O)Oc1c(C)c(C)nc2ccc(F)c(F)c12 [Compound 46, 2,3-dimethyl-4-methanethiolcarbonyloxy-5,6-difluoro-quinoline] | – | – | Death rate, % [1]: 100%; Death rate, % (Dermanyssus gallinae): 100% |
| CCc1nc2ccc(F)c(F)c2c(OC(=O)C(C)C)c1C [Compound 48, 2-ethyl-3-methyl-4-isobutyryloxy-5,6-difluoroquinoline] | – | 100 | – |
| C=COC(=O)Oc1c(C)c(C)nc2ccc(F)c(F)c12 [Compound 51, 2,3-dimethyl-4-vinyloxycarbonyloxy-5,6-difluoroquinoline] | – | 90 | – |
| C#CCCOC(=O)Oc1c(C)c(C)nc2ccc(F)c(F)c12 [Compound 52, 2,3-dimethyl-4-(3-butynyl)oxycarbonyloxy-5,6-difluoroquinoline] | – | 100 | Death rate, % (Ctenocephalides felis; 4 ppm): 70%; pest or weed control at 10 ppm [1]: 100% |
| Cc1nc2ccc(F)c(F)c2c(OC(=O)/C=C/Cl)c1C [Compound 53, 2,3-dimethyl-4-(3-transchloroacryloyloxy)-5,6-difluoroquinoline] | – | 100 | – |
| Cc1nc2ccc(F)c(F)c2c(OC(=O)/C=C\Cl)c1C [Compound 54, 2,3-dimethyl-4-(3-cischloroacryloyloxy)-5,6-difluoroquinoline] | – | 100 | – |
| CCCSC(=O)Oc1c(C)c(CC)nc2ccc(F)c(F)c12 [Compound 55, 2-ethyl-3-methyl-4-propanethiolcarbonyloxy-5,6-difluoroquinoline] | – | – | Death rate, % (Dermanyssus gallinae): 100% |
| C#CCCOC(=O)Oc1c(C)c(CC)nc2ccc(F)c(F)c12 [Compound 56, 2-ethyl-3-methyl-4-(3-butynyl)oxycarbonyloxy-5,6-difluoroquinoline] | – | 95 | pest or weed control at 10 ppm [1]: 100% |
| C=CCOC(=O)Oc1c(C)c(C)nc2ccc(F)c(F)c12 [Compound 57, 2,3-dimethyl-4-allyloxycarbonyloxy-5,6-difluoroquinoline] | – | 100 | – |
| C#CCCCC(=O)Oc1c(C)c(C)nc2ccc(F)c(F)c12 [Compound 58, 2,3-dimethyl-4-(5-hexynoyloxy)-5,6-difluoroquinoline] | – | 80 | – |
| COC(=O)Oc1c(C)c(C)nc2ccc(F)c(C(F)(F)F)c12 [Compound 62, 2,3-dimethyl-4-methoxycarbonyloxy-5-trifluoromethyl-6-fluoroquinoline] | – | 100 | – |
| CC(=O)Oc1c(C)c(C)nc2ccc(Cl)c(Cl)c12 [Compound 65, 2,3-dimethyl-4-acetoxy-5,6-dichloro-quinoline] | – | 80 | – |
| COC(=O)Oc1c(C)c(C)nc2ccc(Cl)c(Cl)c12 [Compound 67, 2,3-dimethyl-4-methoxycarbonyloxy-5,6-dichloroquinoline] | – | 100 | – |
